According to US9139585B2 (Merck Sharp & Dohme Corp., priority 2011, dated 2015):
Where two headings read alike, the source gives them in different places.

How the values were obtained:
[1] = molecular target: hROMK (hKir1.1) (Homo sapiens (Human), UniProt P48048); assay: Thallium Flux Assay (ROMK channel functional thallium flux, FLIPR-Tetra); format: cell-based
Experimental: Another ROMK functional assay makes use of the ability of thallium to permeate through open ROMK channels and increase the fluorescence of a dye previously loaded into the cells. Under control conditions, cells loaded with dye and exposed to thallium-containing medium display a time-dependent increase in fluorescence, the rate of which depends on number of functional channels. When cells are incubated in the presence of a channel inhibitor, the increase in fluorescence is attenuated in a concentration-dependent manner, and IC50 values of inhibition by compounds can be accurately determined. This assay has been established with cell lines expressing either human, or rat ROMK channels, and operates in 384-well format.
HEK293 cells stably expressing hROMK (hKir1.1) were grown at 37° C. in a 10% CO2 humidified incubator in complete growth media: Dulbecco's Modified Eagle Medium supplemented with non-essential amino acids, Penicillin/Streptomycin/Glutamine, G418 and FBS. At >80% confluency, the media was aspirated from the flask and the sample was rinsed with 10 ml Calcium/Magnesium-free PBS. […] To dislodge the cell, the side of the flask was gently banged with a hand. The cells were triturated completely and then transferred to 25 ml complete media. The sample was then centrifuged at 1,500 rpm for 6 minutes, followed by resuspension in complete growth media and then cell concentration was determined. […] Under ideal growth conditions and appropriate tissue culture practices, this cell line is stable for 40-45 passages.
FluxOR Kit Components (Invitrogen F10017)
• FluxOR™ Reagent (Component A) • FluxOR™ Assay Buffer (Component B)—10× Concentrate • PowerLoad™ Concentrate (Component C)—100× Concentrate • Probenecid (Component D)—Lyophilized sample is kept at −20° C. Water soluble, 100× after solubilization in 1 ml water. […] Store at 4° C. • Thallium sulfate (Tl2SO4) Concentrate (Component G)—50 mM in water. Store at 4° C. • DMSO (dimethyl sulfoxide, Component H)—1 ml (100%) Reagent Preparation— FluxOR Working Solutions • 1000× FluxOR™ Reagent: Reconstitute a vial of component A in 100 μl DMSO; Mix well; Store 10 μl aliquots at −20° C. • 1× FluxOR™ Assay Buffer: Dilute Component B 10-fold with water; Adjust pH to 7.4 with Hepes/NaOH; Filter and store at 4° C. • Probenecid/Assay Buffer: 100 ml of 1× FluxOR™ Assay Buffer; 1 ml of reconstituted component D; Store at 4° C. • Loading Buffer (per microplate): 10 μl 1000× FluxOR™ Reagent; 100 μl component C; 10 ml Probenecid/Assay Buffer • Compound Buffer (per microplate): 20 ml Probenecid/Assay Buffer; 0.3 mM ouabain (10 mM ouabain in water can be stored in amber bottle/aluminum foil at room temperature);
Test compound • 1× FluxOR™ Chloride-Free Buffer: Prepare 1× working solution in water. Can be stored at room temperature • Stimulant Buffer (prepared at 5× final concentration in 1× FluxOR™ Chloride-Free Buffer): 7.5 mM Thallium sulfate and 0.75 mM Potassium sulfate (to give a final assay concentration of 3 mM Thallium/0.3 mM Potassium). Store at 4° C. when not in use. If kept sterile, this solution is good for months. Assay Protocol—
The ROMK channel functional thallium flux assay is performed in 384 wells, using the FLIPR-Tetra instrument. HEK-hKir1.1 cells are seeded in Poly-D-Lysine microplates and kept in a 37° C.-10% CO2 incubator overnight. On the day of the experiment, the growth media is replaced with the FluxOR™ reagent loading buffer and incubated, protected from light, at ambient temperature (23-25° C.) for 90 min. The loading buffer is replaced with assay buffer±test compound followed by 30 min incubation at ambient temperature, where the Thallium/Potassium stimulant is added to the microplate.
• 1. Seed HEK-hKir1.1 cells (50 μl at 20,000 cells/well) in 384-well PDL coated Microplates • 2. Allow cells to adhere overnight in humidified 37° C./10% CO2 incubator • 3. Completely remove cell growth media from microplate and replace with 25 μl loading buffer • 4.

[2] = molecular target: Kir1.1 (ROMK1) (Homo sapiens (Human), UniProt P48048); assay: Electrophysiology Assay (whole cell voltage clamp, IonWorks Quattro); format: cell-based; settings: read-out: EP Assay IC50
Chain of Kir1.1 (ROMK1) (P48048 whole entry, species assumed): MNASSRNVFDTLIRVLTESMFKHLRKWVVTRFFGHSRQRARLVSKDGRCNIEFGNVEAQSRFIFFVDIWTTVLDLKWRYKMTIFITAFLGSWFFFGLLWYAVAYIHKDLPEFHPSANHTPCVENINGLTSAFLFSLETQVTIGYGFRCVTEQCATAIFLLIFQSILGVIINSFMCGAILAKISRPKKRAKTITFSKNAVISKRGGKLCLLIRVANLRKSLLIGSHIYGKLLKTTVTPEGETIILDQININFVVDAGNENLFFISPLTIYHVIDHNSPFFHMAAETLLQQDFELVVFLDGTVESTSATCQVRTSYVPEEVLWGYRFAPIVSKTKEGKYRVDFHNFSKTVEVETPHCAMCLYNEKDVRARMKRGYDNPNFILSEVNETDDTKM
From the text: Several assays may be used to measure functional inhibition of the ROMK channel by compounds of the instant invention. One assay that can be used is an electrophysiology assay that measures the electrical current that is generated as potassium permeates through the channel.
Block of Kir1.1 (ROMK1) currents was examined by whole cell voltage clamp (Hamill et. al. Pfluegers Archives 391:85-100 (1981)) using the IonWorks® Quattro automated electrophysiology platform (Molecular Devices, Sunnyvale, Calif.). Chinese hamster ovary cells stably expressing Kir1.1 channels were maintained in T-75 flasks in cell culture media in a humidified 10% CO2 incubator at 37° C. Prior to an experiment, Kir1.1 expression was induced by overnight incubation with 1 mM sodium butyrate. On the day of the experiment, cells were dissociated with 2.5 ml of Versene™ (Invitrogen 15040-066) for approximately 6 minutes at 37° C. and suspended in 10 ml of bath solution containing (in mM): 150 NaCl, 10 KCl, 2.7 CaCl2, 0.5 MgCl2, 5 HEPES, pH 7.4. After centrifugation, the cell pellet was resuspended in approximately 4.0 ml of bath solution and placed in the IonWorks® instrument. The intracellular solution consisted of (in mM): 80 K gluconate, 40 KCl, 20 KF, 3.2 MgCl2, 3 EGTA, 5 Hepes, pH 7.4. Electrical access to the cytoplasm was achieved by perforation in 0.13 mg/ml amphotericin B for 4 minutes. Amphotericin B (Sigma A-4888) was prepared as a 40 mg/ml solution in DMSO.
Voltage protocols and current recordings were performed using the IonWorks® HT software/hardware system. Currents were sampled at 1 kHz. No correction for liquid junction potentials was used. The test pulse, consisting of a 100 ms step to 0 mV from a holding potential of −70 mV, followed by a 100 ms voltage ramp from −70 mV to +70 mV, was applied before and after a 6 minutes compound incubation period. Test compounds were prepared by diluting DMSO stock solutions into the bath solution at 3× the final concentration and placed in the instrument in 96-well polypropylene plates. Current amplitudes were measured using the IonWorks® software. To assess compound potency, the fractional block during the voltage step to 0 mV was calculated in Microsoft® Excel (Microsoft, Redmond, Calif.), and dose-response curves were fitted with Igor Pro 4.0 (WaveMetrics, Lake Oswego, Oreg.).

[3] = HEK293 cells stably expressing hROMK (hKir1.1), read-out: Thallium Flux Assay IC50
[4] = Chinese hamster ovary cells stably expressing Kir1.1, block during voltage step to 0 mV

Chain of hROMK (hKir1.1) (P48048 whole entry): as the sequence (P48048 whole entry, species assumed) above

| SMILES | IC50 [1, 3] | IC50 [2, 4] | IC50 [2] | IC50 ([1]; Thallium Flux Assay IC50) |
| --- | --- | --- | --- | --- |
| COc1cc(C(O)CN2CCN(CC(O)c3ccc4c(c3)C[C@H](C)OC4=O)CC2)ncc1C#N (single isomer, unassigned) [Example 44A] | 704 nM | 151 nM | – | – |
| COc1cc(C(O)CN2CCN(CC(O)c3ccc4c(c3)C[C@H](C)OC4=O)CC2)ncc1C#N (single isomer, unassigned) [Example 44B] | 243 nM | 18 nM | – | – |
| COc1cc(C(O)CN2C3COCC2CN(C[C@H](O)c2ccc4c(c2C)COC4=O)C3)ncc1C#N (stereo in doubt) [Example 25, (R)-6-(1-Hydroxy-2-(7-(2-hydroxy-2-(4-methyl-1-oxo-1,3-dihydroisobenzofuran-5-yl)ethyl)-3-oxa-7,9 diazabicyclo[3.3.1]nonan-9-yl)ethyl)-4-methoxynicotinonitrile] | 20.5 nM | – | 110 nM | – |
| COc1cc(C(O)CN2C3COCC2CN(C[C@H](O)c2ccc4c(c2C)COC4=O)C3)ncc1C#N (stereo in doubt) [Example 26, (R)-6-(1-Hydroxy-2-(7-(2-hydroxy-2-(4-methyl-1-oxo-1,3-dihydroisobenzofuran-5-yl)ethyl)-3-oxa-7,9 diazabicyclo[3.3.1]nonan-9-yl)ethyl)-4-methoxynicotinonitrile] | 49.2 nM | – | 71 nM | – |
| Cc1c([C@@H](O)CN2CCN(C[C@H](O)c3ccc4c(c3C)COC4=O)C3(CCCC3)C2)ccc2c1COC2=O [Example 1, 5,5′-{6,9-Diazaspiro[4.5]decane-6,9-diylbis[(1R)-1-hydroxyethane-2,1-diyl]}bis(4-methyl-2-benzofuran-1(3H)-one)] | 311 nM | 134 nM | – | – |
| Cc1c([C@@H](O)CN2CCN(C[C@H](O)c3ccc4c(c3C)COC4=O)C(C)(C)C2)ccc2c1COC2=O [Example 2, 5,5′-{(2,2-dimethylpiperazine-1,4-diyl)bis[(1R)-1-hydroxyethane-2,1-diyl]}bis(4-methyl-2-benzofuran-1(3H)-one)] | 113 nM | 41 nM | – | – |
| Cc1c([C@@H](O)CN2C[C@@H]3C[C@H]2CN3S(=O)(=O)c2ccc(C#N)cc2)ccc2c1COC2=O [Example 3, 4-((1S,4S)-5-((R)-2-Hydroxy-2-(4-methyl-1-oxo-1,3-dihydroisobenzofuran-5-yl)ethyl)-2,5-diazabicyclo[2.2.1]heptan-2-ylsulfonyl)benzonitrile] | 636 nM | 200 nM | – | – |
| Cc1nc(C(O)CN2C3CCC2C2CCC3N2C[C@H](O)c2ccc3c(c2C)COC3=O)ccc1C#N (stereo partly drawn) [Example 7, 6-(1-Hydroxy-2-{10-[(2R)-2-hydroxy-2-(4-methyl-1-oxo-1,3-dihydro-2-benzofuran-5-yl)ethyl]-9,10-diazatricyclo[4.2.1.1^2,5]dec-9-yl}ethyl)-2-methylpyridine-3-carbonitrile] | 115 nM | 45 nM | – | – |
| Cc1c([C@@H](O)CN2[C@@H]3CC[C@H]2CN(c2ccc(C#N)cn2)C3)ccc2c1COC2=O [Example 10, 6-((1R,5S)-8-((R)-2-Hydroxy-2-(4-methyl-1-oxo-1,3-dihydroisobenzofuran-5-yl)ethyl)-3,8-diazabicyclo[3.2.1]octan-3-yl)nicotinonitrile] | 640 nM | 316 nM | – | – |
| Cc1c([C@@H](O)CN2CCN(c3ccc(C#N)cn3)CC2)ccc2c1COC2=O [Example 11, (R)-6-(4-(2-Hydroxy-2-(4-methyl-1-oxo-1,3-dihydroisobenzofuran-5-yl)ethyl)piperazin-1-yl)nicotinonitrile] | 743 nM | 54 nM | – | – |
| Cc1c([C@@H](O)CN2[C@@H]3CC[C@H]2CN(C(=O)c2ccc(-n4cnnn4)nc2)C3)ccc2c1COC2=O [Example 12, 5-((R)-2-((1R,5S)-3-(6-(1H-Tetrazol-1-yl)nicotinoyl)-3,8-diazabicyclo[3.2.1]octan-8-yl)-1-hydroxyethyl)-4-methylisobenzofuran-1 (3H)-one] | 342 nM | 140 nM | – | – |
| Cc1c([C@@H](O)CN2C3CCC2C2CCC3N2C(=O)c2ccc(-n3cnnn3)nc2)ccc2c1COC2=O [Example 13] | – | – | 130 nM | 985 nM |
| Cc1c([C@@H](O)CN2C[C@H]3CC[C@@H](C2)N3S(=O)(=O)c2ccc(-n3cnnn3)cc2)ccc2c1COC2=O [Example 16] | – | – | 54 nM | 397 nM |
| Cc1c([C@@H](O)CN2CC3COCC(C2)N3C[C@H](O)c2ccc3c(c2C)COC3=O)ccc2c1COC2=O [Example 18, 5,5′-(1R,1′R)-2,2′-(3-Oxa-7,9-diazabicyclo[3.3.1]nonane-7,9-diyl)bis(1-hydroxyethane-2,1-diyl)bis(4-methylisobenzofuran-1(3H)-one)] | 30.8 nM | 30 nM | – | – |
| Cc1c([C@@H](O)CN2CC3COCC(C2)N3CC(O)c2ccc(C#N)cn2)ccc2c1COC2=O (stereo partly drawn) [Example 20, 6-(1-Hydroxy-2-(7-((R)-2-hydroxy-2-(4-methyl-1-oxo-1,3-dihydroisobenzofuran-5-yl)ethyl)-3-oxa-7,9 diazabicyclo[3.3.1]nonan-9-yl)ethyl)nicotinonitrile] | 78 nM | 29.5 nM | – | – |
| Cc1c([C@@H](O)CN2C3COCC2CN(CCc2ccc4c(c2)C[C@@H](C)OC4=O)C3)ccc2c1COC2=O [Example 21, (R)-6-(2-(9-((R)-2-Hydroxy-2-(4-methyl-1-oxo-1,3-dihydroisobenzofuran-5-yl)ethyl)-3-oxa-7,9-diazabicyclo[3.3.1]nonan-7-yl)ethyl)-3-methylisochroman-1-one] | – | – | 45 nM | 36 nM |
